{"source": "ChEMBL document CHEMBL5696442", "about": "“Discovery of type II inhibitors of TGFβ-activated kinase 1 (TAK1) and mitogen-activated protein kinase kinase kinase kinase 2 (MAP4K2)” (J Med Chem, 2015)", "key": {"[1]": {"target": "T1, Phosphorylase b kinase gamma catalytic chain, liver/testis isoform (Homo sapiens) (UniProt P15735)", "T1 sequence (whole entry)": "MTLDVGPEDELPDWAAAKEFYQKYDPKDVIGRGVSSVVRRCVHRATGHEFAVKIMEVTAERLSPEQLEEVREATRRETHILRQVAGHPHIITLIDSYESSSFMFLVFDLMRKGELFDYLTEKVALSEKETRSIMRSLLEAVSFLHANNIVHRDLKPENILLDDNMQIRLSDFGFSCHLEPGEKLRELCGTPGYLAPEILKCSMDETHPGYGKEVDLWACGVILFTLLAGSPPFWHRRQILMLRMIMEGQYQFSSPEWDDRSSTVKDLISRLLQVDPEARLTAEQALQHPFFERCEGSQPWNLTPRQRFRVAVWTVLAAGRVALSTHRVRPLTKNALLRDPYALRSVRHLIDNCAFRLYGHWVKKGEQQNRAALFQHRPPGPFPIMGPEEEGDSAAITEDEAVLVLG", "assay": "Inhibition of PHKG2 (unknown origin) at 10 uM by Ambit Kinomescan binding assay"}, "[2]": {"target": "Uncharacterized serine/threonine-protein kinase SBK3 (Homo sapiens) (UniProt P0C264)", "sequence (P0C264 whole entry)": "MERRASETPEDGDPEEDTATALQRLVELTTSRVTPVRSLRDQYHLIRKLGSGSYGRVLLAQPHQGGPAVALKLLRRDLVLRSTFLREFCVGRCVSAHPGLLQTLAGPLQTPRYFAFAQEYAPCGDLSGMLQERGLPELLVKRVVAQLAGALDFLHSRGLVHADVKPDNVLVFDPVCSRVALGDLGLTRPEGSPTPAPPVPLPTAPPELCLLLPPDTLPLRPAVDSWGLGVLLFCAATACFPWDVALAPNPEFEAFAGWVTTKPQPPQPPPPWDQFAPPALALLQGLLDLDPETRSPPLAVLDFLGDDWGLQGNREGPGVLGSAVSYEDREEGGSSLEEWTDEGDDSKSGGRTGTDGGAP", "assay": "Inhibition of SgK110 (unknown origin) at 10 uM by Ambit Kinomescan binding assay"}, "[3]": {"target": "Casein kinase I isoform delta (Homo sapiens) (UniProt P48730)", "sequence (P48730 whole entry, looked up, canonical isoform)": "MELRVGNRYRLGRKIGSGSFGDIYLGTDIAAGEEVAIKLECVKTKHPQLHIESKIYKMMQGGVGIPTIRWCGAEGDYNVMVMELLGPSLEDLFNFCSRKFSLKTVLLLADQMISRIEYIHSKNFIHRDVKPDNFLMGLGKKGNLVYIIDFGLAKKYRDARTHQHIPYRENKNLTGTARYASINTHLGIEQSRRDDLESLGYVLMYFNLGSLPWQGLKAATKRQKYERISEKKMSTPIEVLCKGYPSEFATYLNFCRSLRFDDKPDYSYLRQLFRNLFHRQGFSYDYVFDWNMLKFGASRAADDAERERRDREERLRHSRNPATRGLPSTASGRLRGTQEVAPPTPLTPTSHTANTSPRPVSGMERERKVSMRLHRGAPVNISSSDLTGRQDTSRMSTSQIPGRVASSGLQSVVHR", "assay": "Inhibition of CK1 delta K2 labeling site in human Huh-7 cells at 10 uM by KiNativ Profiling analysis relative to control", "type": "cell-based"}, "[4]": {"assay": "Inhibition of Wnk1/2/3 K2 labeling site in human Huh-7 cells at 1 uM by KiNativ Profiling analysis relative to control", "details": "condition cancer"}, "[5]": {"target": "Discoidin domain-containing receptor 2 (Homo sapiens) (UniProt Q16832)", "sequence (Q16832 whole entry, the tested form may be a part)": "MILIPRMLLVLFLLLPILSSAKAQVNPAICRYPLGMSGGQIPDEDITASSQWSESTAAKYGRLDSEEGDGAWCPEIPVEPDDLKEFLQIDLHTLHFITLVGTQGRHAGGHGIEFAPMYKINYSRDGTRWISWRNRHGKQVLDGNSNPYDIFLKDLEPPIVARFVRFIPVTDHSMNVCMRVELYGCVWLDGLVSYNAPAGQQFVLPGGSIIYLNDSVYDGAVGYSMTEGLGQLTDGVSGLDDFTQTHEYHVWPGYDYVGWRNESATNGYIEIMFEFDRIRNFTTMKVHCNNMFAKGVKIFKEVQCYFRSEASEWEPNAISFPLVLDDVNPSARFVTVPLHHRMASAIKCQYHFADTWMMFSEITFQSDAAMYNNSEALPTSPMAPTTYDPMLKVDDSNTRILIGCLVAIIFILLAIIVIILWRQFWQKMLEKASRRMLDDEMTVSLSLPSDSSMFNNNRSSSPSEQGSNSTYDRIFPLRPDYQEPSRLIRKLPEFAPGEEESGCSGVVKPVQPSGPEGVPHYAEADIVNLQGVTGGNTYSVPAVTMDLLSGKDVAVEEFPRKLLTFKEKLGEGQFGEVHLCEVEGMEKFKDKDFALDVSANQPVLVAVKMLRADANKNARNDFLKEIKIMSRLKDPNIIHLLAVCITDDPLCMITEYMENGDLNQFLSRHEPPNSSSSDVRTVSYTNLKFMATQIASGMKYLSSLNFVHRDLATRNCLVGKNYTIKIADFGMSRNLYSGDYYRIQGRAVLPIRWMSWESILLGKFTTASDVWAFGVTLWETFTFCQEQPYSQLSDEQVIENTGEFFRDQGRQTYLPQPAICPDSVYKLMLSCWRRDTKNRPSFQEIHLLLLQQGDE", "assay": "Inhibition of DDR2 (unknown origin) at 10 uM by Ambit Kinomescan binding assay relative to control; values are per cent of control"}, "[6]": {"target": "Cyclin-dependent kinase 5 (Homo sapiens) (UniProt Q00535)", "sequence (Q00535 whole entry, looked up)": "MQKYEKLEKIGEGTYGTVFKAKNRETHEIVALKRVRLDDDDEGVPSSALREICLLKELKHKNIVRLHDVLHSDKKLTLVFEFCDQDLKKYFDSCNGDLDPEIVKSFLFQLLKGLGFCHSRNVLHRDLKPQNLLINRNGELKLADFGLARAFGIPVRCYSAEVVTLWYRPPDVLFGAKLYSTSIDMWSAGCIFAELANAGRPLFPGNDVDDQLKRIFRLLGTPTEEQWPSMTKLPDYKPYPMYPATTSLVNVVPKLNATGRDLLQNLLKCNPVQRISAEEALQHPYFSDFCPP", "assay": "Inhibition of CDK5 Lys2 labeling site harbouring DLKPQNLLINR in human Huh-7 cell lysate at 1 uM by KiNativ Profiling analysis relative to control", "type": "subcellular"}, "[7]": {"target": "Serine/threonine-protein kinase/endoribonuclease IRE1 (Homo sapiens) (UniProt O75460)", "sequence (O75460 19-977 limits assumed)": "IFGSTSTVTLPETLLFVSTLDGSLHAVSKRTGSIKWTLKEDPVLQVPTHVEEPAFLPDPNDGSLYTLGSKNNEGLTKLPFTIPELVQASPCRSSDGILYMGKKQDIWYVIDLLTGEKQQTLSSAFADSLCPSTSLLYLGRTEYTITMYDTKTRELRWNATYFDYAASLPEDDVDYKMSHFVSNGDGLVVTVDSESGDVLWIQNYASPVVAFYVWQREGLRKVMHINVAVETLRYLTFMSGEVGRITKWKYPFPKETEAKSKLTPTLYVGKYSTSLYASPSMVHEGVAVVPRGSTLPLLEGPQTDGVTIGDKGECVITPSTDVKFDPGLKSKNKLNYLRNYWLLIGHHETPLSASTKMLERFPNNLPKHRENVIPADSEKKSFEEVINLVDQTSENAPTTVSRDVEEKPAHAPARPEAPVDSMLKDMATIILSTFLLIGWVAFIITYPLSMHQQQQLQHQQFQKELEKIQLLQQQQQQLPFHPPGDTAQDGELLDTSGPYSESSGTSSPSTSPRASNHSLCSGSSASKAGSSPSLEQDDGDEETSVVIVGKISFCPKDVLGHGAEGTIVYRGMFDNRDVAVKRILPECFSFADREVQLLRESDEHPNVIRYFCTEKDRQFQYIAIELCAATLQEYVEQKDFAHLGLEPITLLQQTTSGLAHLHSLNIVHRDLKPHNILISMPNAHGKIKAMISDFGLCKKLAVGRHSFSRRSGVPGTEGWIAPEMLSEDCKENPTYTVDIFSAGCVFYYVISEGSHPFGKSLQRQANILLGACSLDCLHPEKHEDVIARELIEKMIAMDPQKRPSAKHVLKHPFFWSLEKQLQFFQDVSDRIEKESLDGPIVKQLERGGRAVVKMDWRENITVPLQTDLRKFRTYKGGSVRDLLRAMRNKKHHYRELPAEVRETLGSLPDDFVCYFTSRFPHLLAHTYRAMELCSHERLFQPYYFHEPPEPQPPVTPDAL", "assay": "Inhibition of IRE1 Lys2 labeling site in human Huh-7 cells at 1 uM by KiNativ Profiling analysis relative to control", "type": "cell-based"}, "[8]": {"system": "Epidermal growth factor receptor (Homo sapiens), P00533 [T790M]", "sequence (P00533 whole entry T790M)": "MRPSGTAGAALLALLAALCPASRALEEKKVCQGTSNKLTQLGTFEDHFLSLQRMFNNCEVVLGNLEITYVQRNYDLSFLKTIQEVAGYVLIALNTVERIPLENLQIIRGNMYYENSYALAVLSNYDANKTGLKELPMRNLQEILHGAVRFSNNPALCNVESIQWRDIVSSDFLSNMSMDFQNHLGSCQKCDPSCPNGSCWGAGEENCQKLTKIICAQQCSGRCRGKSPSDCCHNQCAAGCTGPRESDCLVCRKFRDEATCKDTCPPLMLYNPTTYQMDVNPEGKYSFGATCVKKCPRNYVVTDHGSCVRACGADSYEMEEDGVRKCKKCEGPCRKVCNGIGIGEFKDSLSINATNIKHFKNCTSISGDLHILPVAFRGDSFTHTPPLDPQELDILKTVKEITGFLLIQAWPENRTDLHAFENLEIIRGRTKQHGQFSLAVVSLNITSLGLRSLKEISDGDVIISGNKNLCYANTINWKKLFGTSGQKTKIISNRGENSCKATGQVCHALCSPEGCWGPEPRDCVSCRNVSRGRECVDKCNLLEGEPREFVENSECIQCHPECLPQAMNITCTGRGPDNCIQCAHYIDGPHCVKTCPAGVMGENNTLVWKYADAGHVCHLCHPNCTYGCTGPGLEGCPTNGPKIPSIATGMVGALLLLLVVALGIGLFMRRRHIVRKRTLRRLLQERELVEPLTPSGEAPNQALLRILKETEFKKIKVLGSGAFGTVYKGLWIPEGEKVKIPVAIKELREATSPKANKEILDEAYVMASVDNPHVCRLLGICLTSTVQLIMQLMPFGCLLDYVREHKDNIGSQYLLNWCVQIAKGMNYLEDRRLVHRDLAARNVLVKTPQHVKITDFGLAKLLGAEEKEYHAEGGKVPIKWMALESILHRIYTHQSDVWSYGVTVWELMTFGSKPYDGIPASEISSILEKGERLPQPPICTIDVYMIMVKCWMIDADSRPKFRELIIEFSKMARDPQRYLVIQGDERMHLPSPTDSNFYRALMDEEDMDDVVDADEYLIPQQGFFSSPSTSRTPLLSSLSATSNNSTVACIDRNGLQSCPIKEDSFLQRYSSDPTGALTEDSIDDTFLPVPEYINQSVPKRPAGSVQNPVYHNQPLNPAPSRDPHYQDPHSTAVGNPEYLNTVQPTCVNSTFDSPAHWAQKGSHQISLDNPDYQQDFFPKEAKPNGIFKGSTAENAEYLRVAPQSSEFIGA", "assay": "Inhibition of EGFR T790M mutant (unknown origin) at 1 uM by Ambit Kinomescan binding assay relative to control"}, "[9]": {"target": "Tyrosine-protein kinase FRK (Homo sapiens) (UniProt P42685)", "sequence (P42685 whole entry)": "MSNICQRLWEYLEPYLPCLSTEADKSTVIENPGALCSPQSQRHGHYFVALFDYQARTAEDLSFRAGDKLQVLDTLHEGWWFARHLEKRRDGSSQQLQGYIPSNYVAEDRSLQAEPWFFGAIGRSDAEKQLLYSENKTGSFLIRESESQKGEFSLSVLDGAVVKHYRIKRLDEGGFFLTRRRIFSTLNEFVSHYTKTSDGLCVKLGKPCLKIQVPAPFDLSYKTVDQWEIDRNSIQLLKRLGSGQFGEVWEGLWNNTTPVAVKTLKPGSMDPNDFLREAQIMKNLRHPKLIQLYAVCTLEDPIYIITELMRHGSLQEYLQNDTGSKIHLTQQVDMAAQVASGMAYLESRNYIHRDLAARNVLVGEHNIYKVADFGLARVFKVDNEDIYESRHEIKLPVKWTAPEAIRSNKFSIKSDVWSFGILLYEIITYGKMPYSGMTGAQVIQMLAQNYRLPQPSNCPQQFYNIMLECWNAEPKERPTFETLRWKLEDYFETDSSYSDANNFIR", "assay": "Inhibition of FRK (unknown origin) at 1 uM by Ambit Kinomescan binding assay relative to control; values are per cent of control"}, "[10]": {"target": "Tyrosine-protein kinase HCK (Homo sapiens) (UniProt P08631)", "assay": "Inhibition of HCK (unknown origin) at 1 uM by Ambit Kinomescan binding assay relative to control; values are per cent of control"}, "[11]": {"target": "Serine/threonine-protein kinase PAK 1 (Homo sapiens) (UniProt Q13153)", "assay": "Inhibition of PAK1 (unknown origin) at 1 uM by Ambit Kinomescan binding assay relative to control; values are per cent of control"}, "[12]": {"target": "Serine/threonine-protein kinase 17B (Homo sapiens) (UniProt O94768)", "sequence (O94768 whole entry)": "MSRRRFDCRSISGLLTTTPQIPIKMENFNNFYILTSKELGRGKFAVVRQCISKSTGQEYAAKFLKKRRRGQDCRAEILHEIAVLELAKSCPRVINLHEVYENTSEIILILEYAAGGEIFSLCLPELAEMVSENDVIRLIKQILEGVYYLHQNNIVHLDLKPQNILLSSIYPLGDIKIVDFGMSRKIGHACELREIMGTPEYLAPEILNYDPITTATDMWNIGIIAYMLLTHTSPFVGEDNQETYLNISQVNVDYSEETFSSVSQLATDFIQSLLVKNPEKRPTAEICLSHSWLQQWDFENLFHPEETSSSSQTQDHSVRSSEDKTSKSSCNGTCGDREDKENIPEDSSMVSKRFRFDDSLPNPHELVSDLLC", "assay": "Inhibition of DRAK2 (unknown origin) at 1 uM by Ambit Kinomescan binding assay relative to control; values are per cent of control"}, "[13]": {"target": "Interleukin-1 receptor-associated kinase 3 (Homo sapiens) (UniProt Q9Y616)", "assay": "Inhibition of IRAK3 (unknown origin) at 1 uM by Ambit Kinomescan binding assay relative to control; values are per cent of control"}, "[14]": {"target": "T2, Phosphatidylinositol 5-phosphate 4-kinase type-2 gamma (Homo sapiens) (UniProt Q8TBX8)", "T2 sequence (whole entry)": "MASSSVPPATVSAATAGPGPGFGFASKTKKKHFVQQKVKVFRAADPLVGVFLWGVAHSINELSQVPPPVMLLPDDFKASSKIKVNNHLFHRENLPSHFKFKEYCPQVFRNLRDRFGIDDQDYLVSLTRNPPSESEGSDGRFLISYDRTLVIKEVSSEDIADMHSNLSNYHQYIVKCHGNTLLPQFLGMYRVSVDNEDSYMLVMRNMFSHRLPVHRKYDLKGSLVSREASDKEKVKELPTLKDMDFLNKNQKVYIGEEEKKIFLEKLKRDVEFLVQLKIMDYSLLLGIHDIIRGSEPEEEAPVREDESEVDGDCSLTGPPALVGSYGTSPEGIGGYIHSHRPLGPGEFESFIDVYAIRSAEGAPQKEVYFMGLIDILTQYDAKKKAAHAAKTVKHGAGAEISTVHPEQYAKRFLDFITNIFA", "assay": "Inhibition of PIP5K2C (unknown origin) at 1 uM by Ambit Kinomescan binding assay relative to control; values are per cent of control"}}, "note": "The source made the active and inactive calls. No cut-off for these calls is given here."}
{"smiles": "CCN1CCN(Cc2ccc(NC(=O)c3ccc(C)c(Oc4ccnc5[nH]ccc45)c3)cc2C(F)(F)F)CC1", "values": [{"measurement": "inhibition", "setting": "[1]", "value": "inactive"}, {"measurement": "inhibition", "setting": "[2]", "value": "inactive"}, {"measurement": "inhibition", "setting": "[3]", "value": 7.8, "unit": "%"}, {"measurement": "inhibition at 1 µM", "setting": "[4]", "value": -17.1, "unit": "%"}, {"measurement": "percent of control", "setting": "[5]", "value": 5.1, "unit": "%"}]}
{"smiles": "CNc1cc(Oc2cc(C(=O)Nc3cc(N4CCN(C)CC4)cc(C(F)(F)F)c3)ccc2C)ncn1", "values": [{"measurement": "inhibition", "setting": "[6]", "value": 2.6, "unit": "%"}, {"measurement": "inhibition", "setting": "[7]", "value": -9.9, "unit": "%"}]}
{"smiles": "CCN1CCN(Cc2ccc(NC(=O)c3ccc(C)c(/C=C/c4cnc5[nH]ccc5c4OC)c3)cc2C(F)(F)F)CC1", "values": [{"measurement": "inhibition", "setting": "[8]", "value": 68, "unit": "%"}, {"measurement": "residual activity", "setting": "[9]", "value": 3.6, "unit": "%"}, {"measurement": "residual activity", "setting": "[10]", "value": 0.5, "unit": "%"}, {"measurement": "residual activity", "setting": "[11]", "value": 100, "unit": "%"}, {"measurement": "residual activity", "setting": "[12]", "value": 16, "unit": "%"}, {"measurement": "residual activity", "setting": "[13]", "value": 76, "unit": "%"}, {"measurement": "residual activity", "setting": "[14]", "value": 100, "unit": "%"}]}
